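96-well plates; 48 h exposure; 5 concentrations. Endpoints by linear interpolation between flanking doses. Not reached: highest tested concentration assigned. GI50 is the concentration that inhibits growth by half. TGI marks complete inhibition of growth.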
What was measured:
Test in all cases: DTP human tumour cell line panel, 48 h
A549 NSCLC = system: A549 NSCLC
ACHN renal = system: ACHN renal
BT-549 breast = system: BT-549 breast
COLO 205 colon = system: COLO 205 colon
DU-145 prostate = system: DU-145 prostate
EKVX NSCLC = system: EKVX NSCLC
NCI-H226 lung = system: NCI-H226 lung
SF-539 CNS = system: SF-539 CNS
U251 CNS = system: U251 CNS
UACC-257 melanoma = system: UACC-257 melanoma

Row | SMILES | GI50 (A549 NSCLC) | TGI (A549 NSCLC) | GI50 (ACHN renal) | TGI (ACHN renal) | GI50 (BT-549 breast) | TGI (BT-549 breast) | GI50 (COLO 205 colon) | TGI (COLO 205 colon) | GI50 (DU-145 prostate) | TGI (DU-145 prostate) | GI50 (EKVX NSCLC) | TGI (EKVX NSCLC) | GI50 (NCI-H226 lung) | TGI (NCI-H226 lung) | GI50 (SF-539 CNS) | TGI (SF-539 CNS) | GI50 (U251 CNS) | TGI (U251 CNS) | GI50 (UACC-257 melanoma) | TGI (UACC-257 melanoma)
1 | COc1cc(/C=C/C(=O)N2CCN(C(=O)c3cc(OC)c(OC)c(OC)c3)CC2)ccc1OCCCOc1cc2c(cc1OC)C(=O)N1CCC[C@H]1C=N2 | 0.953 µM | 9.26 µM | 2.64 µM | > 35.3 µM | 0.154 µM | 0.434 µM | 0.19 µM | 0.476 µM | 0.351 µM | 11.5 µM | 0.794 µM | 4.56 µM | 0.286 µM | 1.19 µM | 0.248 µM | 0.578 µM | 0.227 µM | 6.06 µM | 0.313 µM | 2.04 µM
2 | O=C(Nc1n[nH]c2nnc(-c3cccnc3)cc12)C1CC1 | > 20.7 µM | > 25 µM | 3.88 µM | > 25 µM | 10.8 µM | > 25 µM | 7.45 µM | > 25 µM | > 13.4 µM | > 25 µM | > 20.9 µM | > 25 µM | 2.7 µM | > 13.9 µM | 2.79 µM | > 20.8 µM | 1.06 µM | > 25 µM | > 17.4 µM | > 25 µM
3 | CCCCCCCCC(=O)OCC(CS[As](C)C)OC(=O)CCCCCCCC (centres undefined) | 8.36 µM | 41.7 µM | 0.602 µM | 3.62 µM | 4.78 µM | 19.1 µM | 0.557 µM | 24.8 µM | 0.747 µM | 2.64 µM | 2.45 µM | 19 µM | 5.81 µM | 25.5 µM | 0.49 µM | 1.28 µM | 2.45 µM | 13 µM | 1.4 µM | 15.3 µM
4 | NCOC(=O)Cc1ccc(Br)cc1 |  | > 100 µM |  | > 100 µM |  | > 100 µM |  | > 100 µM |  | > 100 µM |  | > 100 µM |  | > 100 µM |  | > 100 µM |  | > 100 µM |  | > 100 µM
5 | COc1cc(C(=O)N/N=C/c2ccc(N(C)C)cc2)cc(OC)c1OC | 0.502 µM | > 100 µM | 1.28 µM | > 100 µM | 0.696 µM | > 26.7 µM | 0.406 µM | 1.64 µM | 0.415 µM | 2.79 µM | > 100 µM | > 100 µM | 4.68 µM | > 100 µM | 0.3 µM | 5.25 µM | 0.436 µM | > 100 µM |  | > 100 µM
6 | NCC1OC(OC2C(CO)OC(OC3C(O)C(N)CC(N)C3OC3OC(CO)C(O)CC3N)C2O)C(N)C(O)C1OC1OC(CO)C(O)C(O)C1O (centres undefined) | > 50 µg/mL | > 50 µg/mL | > 50 µg/mL | > 50 µg/mL | > 50 µg/mL | > 50 µg/mL | > 50 µg/mL | > 50 µg/mL | > 50 µg/mL | > 50 µg/mL | > 50 µg/mL | > 50 µg/mL | > 50 µg/mL | > 50 µg/mL | > 50 µg/mL | > 50 µg/mL | > 50 µg/mL | > 50 µg/mL | > 50 µg/mL | > 50 µg/mL
7 | CCN1Cc2nc3sc(C)c(C)c3c(=O)n2C=C1C | 38.5 µM | > 100 µM | 11.5 µM | > 100 µM | 7.36 µM | 92.1 µM | 24.4 µM | > 100 µM | 7.7 µM | 23 µM | 21.8 µM | > 100 µM | 8.17 µM | 21.9 µM | 12.9 µM | 34.4 µM | 4.23 µM | > 100 µM | 4.56 µM | 17.6 µM
8 | CCN(CC)C1CCC(Nc2c(C(C)=O)cnc3ccc(-c4ccc(O)c(Cl)c4)cc23)CC1 (centres undefined) | 0.58 µM | 5.52 µM | 0.485 µM | > 37.8 µM | 1.91 µM | 5.89 µM | 10.7 µM | 40.7 µM | 0.875 µM | > 35.5 µM | 1.82 µM | > 47.2 µM | 2.16 µM | 22.6 µM | 0.551 µM | 7.87 µM | 1.16 µM | 17 µM | 2.77 µM | 18.3 µM
9 | O=C1c2ccccc2-c2c1c1ccccc1c(=O)n2CCCNCCCCNCCCN1C(=O)c2ccccc2C2C(=O)c3ccccc3C21 (centres undefined) | 0.0451 µM | 0.881 µM | 0.0573 µM | 0.762 µM | 0.854 µM | 2.04 µM | 0.681 µM | 1.61 µM | 0.127 µM | 0.837 µM | 0.358 µM | 1.05 µM | 0.575 µM | 2.19 µM | 0.0919 µM | 0.759 µM | 0.0756 µM | 0.767 µM | 3.86 µM | 11.7 µM
10 | Clc1ccc(-c2cc(-c3ccccc3)nc(NCCNc3ccnc4cc(Cl)ccc34)n2)cc1 | 1.71 µM | 3.45 µM | 1.72 µM | 3.24 µM | 1.68 µM | 3.25 µM | 1.68 µM | 3.66 µM | 1.82 µM | 3.31 µM | 1.6 µM | 3.34 µM | 1.57 µM | 3.68 µM | 1.72 µM | 3.34 µM | 1.72 µM | 3.37 µM | 2 µM | 4.09 µM
11 | O=C(Nc1ccc(/C=C/c2ccc(NC(=O)c3cc(S(=O)(=O)O)c4cccnc4c3O)cc2S(=O)(=O)O)c(S(=O)(=O)O)c1)c1cc(S(=O)(=O)O)c2cccnc2c1O | 9.49 µM | > 56 µM | 3.37 µM | > 15.8 µM | 21.8 µM | > 79.8 µM | 19.9 µM | > 57.5 µM | 17.7 µM | > 50.7 µM | > 50.9 µM | > 80.5 µM | 6.29 µM | 47.5 µM | 11.3 µM | > 54.9 µM | 3.32 µM | > 22.4 µM | 25.8 µM | > 56.3 µM
12 | O=C1OCC2=C1C(c1ccc(Cl)c(Cl)c1)c1cc3c(cc1N2CCO)CCC3 (centres undefined) | 0.195 µM | 8.04 µM | 0.371 µM | 12.2 µM | 1.35 µM | 10.9 µM | 0.175 µM | 0.702 µM | 0.203 µM | 6.56 µM | 0.435 µM | 15.6 µM | 0.248 µM | 6.47 µM | 0.147 µM | 3.32 µM | 0.181 µM | 6.29 µM | 0.151 µM | 15.7 µM
13 | CC(=O)N1N=C2/C(=C/c3ccc(Cl)cc3)CC(C)CC2C1c1ccc(Cl)cc1 (centres undefined) | 20.6 µM | > 100 µM | 33.2 µM | > 100 µM | 17 µM | 34.2 µM | 11.8 µM | 24.5 µM | 30.5 µM | > 100 µM | 21.5 µM | 92.7 µM | 22 µM | 70.2 µM | 19.1 µM | 38 µM | 25.1 µM | 86.8 µM | 19.9 µM | 56.1 µM
14 | O=C(Nc1ccccc1)c1cc(S(=O)(=O)Nc2nc3ccccc3o2)c(SCc2ccccc2)cc1Cl | 21 µM | 53.8 µM | 18.2 µM | 37 µM | 19 µM | 40.6 µM | 36.7 µM | > 100 µM | 16.5 µM | 32.4 µM | 15.3 µM | 31.3 µM | 21.5 µM | 50.7 µM | 15.8 µM | 31.1 µM | 17.8 µM | 35 µM | 19.6 µM | 38.6 µM
15 | O=C(O)c1ccc(C(=O)O)c(C(=O)Nc2ccc3c(c2)C(=O)c2ccccc2-3)c1 |  | > 100 µM |  | > 100 µM |  | > 100 µM |  | > 100 µM |  | > 100 µM |  | > 100 µM |  | > 100 µM |  | > 100 µM |  | > 100 µM |  | > 100 µM
16 | Cn1c(NCC(O)CN2CCCC2)cc(=O)n(C)c1=O (centres undefined) | > 100 µM | > 100 µM | > 100 µM | > 100 µM | > 100 µM | > 100 µM | > 100 µM | > 100 µM | > 100 µM | > 100 µM | > 100 µM | > 100 µM | > 100 µM | > 100 µM | > 100 µM | > 100 µM | > 100 µM | > 100 µM | > 100 µM | > 100 µM
17 | CC1OC(OC2C(OC3CCC4(C)C(CCC5(C)C4CC=C4C6CC(C)(C)CCC6(C(=O)O)CCC45C)C3(C)CO)OCC(O)C2O)C(O)C(O)C1O (centres undefined) |  | 38.2 µM |  | 37.5 µM |  | 35 µM |  | 44.4 µM |  | 42.3 µM |  | 40 µM |  | 49.6 µM |  | 32.8 µM |  | 50.3 µM |  | 41.2 µM
18 | CCCCCCCCn1ccc2cc(NC(=O)Cn3cc(CN4CCCCC4)nn3)ccc21 | 1.99 µM | 4.57 µM | 1.72 µM | 3.19 µM | 10.2 µM | 23.2 µM | 1.84 µM | 3.68 µM | 4.1 µM | 14.4 µM | 2.89 µM | 13.9 µM | 8.65 µM | 27.7 µM | 1.81 µM | 3.26 µM | 1.78 µM | 3.34 µM | 2.01 µM | 4.45 µM
19 | COc1cc(-c2c(C#N)c(N)nc(N3CCOCC3)c2C#N)cc(OC)c1OC | > 100 µM | > 100 µM | > 100 µM | > 100 µM | > 100 µM | > 100 µM | 5.39 µM | > 100 µM | > 100 µM | > 100 µM | > 100 µM | > 100 µM | > 100 µM | > 100 µM | > 100 µM | > 100 µM | > 100 µM | > 100 µM | > 100 µM | > 100 µM
20 | O=S(=O)(/N=c1/scc(-c2ccccc2)n1-c1ccccc1)c1ccc(N2N=C3c4ccccc4CC3C2c2cccs2)cc1 (centres undefined) | 57 µM | > 100 µM | 42.5 µM | > 100 µM | 47.5 µM | > 100 µM | > 100 µM | > 100 µM | > 100 µM | > 100 µM | 35.5 µM | > 100 µM | 78.9 µM | > 100 µM | > 100 µM | > 100 µM | 31.2 µM | > 100 µM | > 100 µM | > 100 µM
21 | COc1cc2c(cc1OC)C1Cc3cc(OC)c(OC)cc3C(C2)N1C |  | > 100 µM |  | > 100 µM |  | > 75 µM |  | > 75 µM |  | > 75 µM |  | > 100 µM |  | > 75 µM |  | > 75 µM |  | > 100 µM |  | > 100 µM
22 | CC(=O)OC12COC1CC(O)C1(C)C(=O)C(O)C3=C(C)C(O)CC(O)(C(OC(=O)c4ccccc4)C21)C3(C)C (centres undefined) |  | > 100 µM |  | > 100 µM |  | > 100 µM |  | 5.29 µM |  | > 100 µM |  | > 100 µM |  | > 100 µM |  | 5.51 µM |  | > 74.3 µM |  | > 100 µM
23 | O=C1c2cccc(NCCN=Cc3ccccc3O)c2C(=O)c2c(NCCN=Cc3ccccc3O)cccc21 | 0.668 µM | 14.3 µM | 1.32 µM | 8.82 µM | 2.77 µM | 9.37 µM | 0.46 µM | 2.18 µM | 0.364 µM | 1.55 µM | 1.87 µM | 8.39 µM | 0.571 µM | 6 µM | 1.48 µM | 4.57 µM | 0.521 µM | 4.62 µM | 1.44 µM | 4.3 µM

Reference: PubChem BioAssay (NCI)
